From ChEMBL document CHEMBL5154863, “Design and synthesis of quinolinium-based derivatives targeting FtsZ for antibacterial evaluation and mechanistic study” (Eur J Med Chem, 2022)
Converted amounts (≈) assume the structure as drawn.

Legend:
Assay type in all cases: functional
Conditions in all cases: time 20-24 hrs
Staphylococcus aureus [1] = assay: Antibacterial activity against vancomycin-intermediate Staphylococcus aureus Mu50 assessed as inhibition of bacterial growth incubated for 20 to 24 hrs by broth micro dilution method
Escherichia coli [2] = assay: Antibacterial activity against NDM-1 expressing Escherichia coli ATCC BAA2469 assessed as inhibition of bacterial growth incubated for 20 to 24 hrs by broth micro dilution method
Escherichia coli [3] = assay: Antibacterial activity against Escherichia coli ATCC 8739 assessed as inhibition of bacterial growth incubated for 20 to 24 hrs by broth micro dilution method
[4] = tested on: Staphylococcus epidermidis; assay: Antibacterial activity against Staphylococcus epidermidis ATCC 12228 assessed as inhibition of bacterial growth incubated for 20 to 24 hrs by broth micro dilution method
Staphylococcus aureus [5] = assay: Antibacterial activity against methicillin-resistant Staphylococcus aureus ATCC 43300 assessed as inhibition of bacterial growth incubated for 20 to 24 hrs by broth micro dilution method
Acinetobacter baumannii = assay: Antibacterial activity against multi-drug resistant Acinetobacter baumannii ATCC 19606 assessed as inhibition of bacterial growth incubated for 20 to 24 hrs by broth micro dilution method
Enterococcus faecium [6] = assay: Antibacterial activity against vancomycin resistant Enterococcus faecium ATCC 700221 assessed as inhibition of bacterial growth incubated for 20 to 24 hrs by broth micro dilution method
Staphylococcus aureus [7] = assay: Antibacterial activity against methicillin-resistant Staphylococcus aureus ATCC BAA-1720 assessed as inhibition of bacterial growth incubated for 20 to 24 hrs by broth micro dilution method
Pseudomonas aeruginosa = assay: Antibacterial activity against […] Pseudomonas aeruginosa ATCC 27853 assessed as inhibition of bacterial growth incubated for 20 to 24 hrs by broth micro dilution method
Enterococcus faecalis = assay: Antibacterial activity against Enterococcus faecalis ATCC 29212 assessed as inhibition of bacterial growth incubated for 20 to 24 hrs by broth micro dilution method
Escherichia coli [8] = assay: Antibacterial activity against Escherichia coli ATCC 25922 assessed as inhibition of bacterial growth incubated for 20 to 24 hrs by broth micro dilution method
Bacillus subtilis = assay: Antibacterial activity against Bacillus subtilis CMCC (B) 63501 assessed as inhibition of bacterial growth incubated for 20 to 24 hrs by broth micro dilution method
Staphylococcus aureus [9] = assay: Antibacterial activity against methicillin-resistant Staphylococcus aureus ATCC 33592 assessed as inhibition of bacterial growth incubated for 20 to 24 hrs by broth micro dilution method
Enterococcus faecium [10] = assay: Antibacterial activity against Enterococcus faecium ATCC 49624 assessed as inhibition of bacterial growth incubated for 20 to 24 hrs by broth micro dilution method
Klebsiella pneumoniae = assay: Antibacterial activity against NDM-1 expressing Klebsiella pneumoniae ATCC BAA 2470 assessed as inhibition of bacterial growth incubated for 20 to 24 hrs by broth micro dilution method
Enterococcus faecium [11] = assay: Antibacterial activity against vancomycin-resistant Enterococcus faecium clinical isolate assessed as inhibition of bacterial growth incubated for 20 to 24 hrs by broth micro dilution method
Staphylococcus aureus [12] = assay: Antibacterial activity against Staphylococcus aureus ATCC 29213 assessed as inhibition of bacterial growth incubated for 20 to 24 hrs by broth micro dilution method

Compound	MIC (Staphylococcus aureus [1])	MIC (Escherichia coli [2])	MIC (Escherichia coli [3])	MIC [4]	MIC (Staphylococcus aureus [5])	MIC (Acinetobacter baumannii)	MIC (Enterococcus faecium [6])	MIC (Staphylococcus aureus [7])	MIC (Pseudomonas aeruginosa)	MIC (Enterococcus faecalis)	MIC (Escherichia coli [8])	MIC (Bacillus subtilis)	MIC (Staphylococcus aureus [9])	MIC (Enterococcus faecium [10])	MIC (Klebsiella pneumoniae)	MIC (Enterococcus faecium [11])	MIC (Staphylococcus aureus [12])
CN(C)c1ccc(/C=C/c2cc(NCCCc3ccccc3)[n+](C)c3ccccc23)cc1.[I-]	4 µg/mL	> 64 µg/mL	> 64 µg/mL	4 µg/mL	4 µg/mL	> 64 µg/mL	4 µg/mL	4 µg/mL	> 64 µg/mL	4 µg/mL	> 64 µg/mL	2 µg/mL	4 µg/mL	4 µg/mL	> 64 µg/mL	4 µg/mL	4 µg/mL
CCCCNc1cc(/C=C/c2ccc(N(C)C)cc2)[n+](C)c2ccccc12.[I-]	4 µg/mL	> 64 µg/mL	> 64 µg/mL	2 µg/mL	4 µg/mL	> 64 µg/mL	4 µg/mL	2 µg/mL	> 64 µg/mL	2 µg/mL	32 µg/mL	8 µg/mL	2 µg/mL	16 µg/mL	> 64 µg/mL	8 µg/mL	4 µg/mL
CN(C)c1ccc(/C=C/c2cc(NCCCc3ccccc3)c3ccccc3[n+]2C)cc1.[I-]	4 µg/mL	> 64 µg/mL	> 64 µg/mL	2 µg/mL	2 µg/mL	> 64 µg/mL	4 µg/mL	2 µg/mL	> 64 µg/mL	8 µg/mL	> 64 µg/mL	4 µg/mL	2 µg/mL	4 µg/mL	> 64 µg/mL	4 µg/mL	2 µg/mL
CN(C)c1ccc(/C=C/c2cc(NCCCO)c3ccccc3[n+]2C)cc1.[I-]	16 µg/mL	> 64 µg/mL	> 64 µg/mL	8 µg/mL	64 µg/mL	> 64 µg/mL	16 µg/mL	64 µg/mL	> 64 µg/mL	16 µg/mL	> 64 µg/mL	> 64 µg/mL	32 µg/mL	8 µg/mL	> 64 µg/mL	> 64 µg/mL	32 µg/mL
CN(C)c1ccc(/C=C/c2ccc3ccccc3[n+]2C)cc1.[I-]	–	–	–	16 µg/mL	–	–	–	–	–	> 64 µg/mL	–	64 µg/mL	–	8 µg/mL	–	–	16 µg/mL
CN(C)c1ccc(/C=C/c2cc[n+](C)c3ccccc23)cc1.[I-]	–	–	–	16 µg/mL	–	–	–	–	–	> 64 µg/mL	–	64 µg/mL	–	16 µg/mL	–	–	16 µg/mL
CN(C)c1ccc(/C=C/c2cc(N3CCOCC3)c3ccccc3[n+]2C)cc1.[I-]	32 µg/mL	> 64 µg/mL	> 64 µg/mL	16 µg/mL	64 µg/mL	> 64 µg/mL	16 µg/mL	64 µg/mL	> 64 µg/mL	> 64 µg/mL	> 64 µg/mL	32 µg/mL	64 µg/mL	8 µg/mL	> 64 µg/mL	32 µg/mL	32 µg/mL
CCCNc1cc(/C=C/c2ccc(N(C)C)cc2)[n+](C)c2ccccc12.[I-]	8 µg/mL	> 64 µg/mL	> 64 µg/mL	2 µg/mL	8 µg/mL	> 64 µg/mL	4 µg/mL	4 µg/mL	> 64 µg/mL	4 µg/mL	32 µg/mL	16 µg/mL	4 µg/mL	16 µg/mL	> 64 µg/mL	8 µg/mL	8 µg/mL
CN(C)c1ccc(/C=C/c2cc(NCCCO)[n+](C)c3ccccc23)cc1.[I-]	64 µg/mL	> 64 µg/mL	> 64 µg/mL	64 µg/mL	> 64 µg/mL	> 64 µg/mL	64 µg/mL	64 µg/mL	> 64 µg/mL	> 64 µg/mL	> 64 µg/mL	32 µg/mL	64 µg/mL	> 64 µg/mL	> 64 µg/mL	64 µg/mL	> 64 µg/mL
O=C(O)c1cn(C2CC2)c2cc(N3CCNCC3)c(F)cc2c1=O [CIPROFLOXACIN]	1 µg/mL (≈ 3.02 µM)	> 64 µg/mL	< 0.125 µg/mL	1 µg/mL (≈ 3.02 µM)	2 µg/mL (≈ 6.04 µM)	–	> 64 µg/mL	> 64 µg/mL	1 µg/mL (≈ 3.02 µM)	4 µg/mL (≈ 12.1 µM)	–	0.25 µg/mL (≈ 0.754 µM)	–	32 µg/mL (≈ 96.6 µM)	> 64 µg/mL	–	0.25 µg/mL (≈ 0.754 µM)
CN(C)c1ccc(/C=C/c2cc(N3CCCC3)[n+](C)c3ccccc23)cc1.[I-]	8 µg/mL	64 µg/mL	32 µg/mL	2 µg/mL	16 µg/mL	> 64 µg/mL	8 µg/mL	16 µg/mL	> 64 µg/mL	64 µg/mL	16 µg/mL	16 µg/mL	16 µg/mL	16 µg/mL	> 64 µg/mL	16 µg/mL	4 µg/mL
CN(C)c1ccc(/C=C/c2cc(N3CCOCC3)[n+](C)c3ccccc23)cc1.[I-]	32 µg/mL	> 64 µg/mL	> 64 µg/mL	16 µg/mL	> 64 µg/mL	> 64 µg/mL	32 µg/mL	> 64 µg/mL	> 64 µg/mL	> 64 µg/mL	> 64 µg/mL	16 µg/mL	64 µg/mL	8 µg/mL	> 64 µg/mL	> 64 µg/mL	32 µg/mL
CCCNc1cc(/C=C/c2ccc(N(C)C)cc2)c2ccccc2[n+]1C.[I-]	32 µg/mL	> 64 µg/mL	> 64 µg/mL	32 µg/mL	32 µg/mL	> 64 µg/mL	16 µg/mL	16 µg/mL	> 64 µg/mL	64 µg/mL	> 64 µg/mL	16 µg/mL	> 64 µg/mL	32 µg/mL	> 64 µg/mL	16 µg/mL	> 64 µg/mL
CC1(C)S[C@@H]2[C@H](NC(=O)[C@H](N)c3ccccc3)C(=O)N2[C@H]1C(=O)O [AMPICILLIN]	0.125 µg/mL (≈ 0.358 µM)	> 64 µg/mL	16 µg/mL (≈ 45.8 µM)	> 64 µg/mL	> 64 µg/mL	> 64 µg/mL	0.25 µg/mL (≈ 0.715 µM)	> 64 µg/mL	> 64 µg/mL	1 µg/mL (≈ 2.86 µM)	–	4 µg/mL (≈ 11.4 µM)	64 µg/mL (≈ 183 µM)	2 µg/mL (≈ 5.72 µM)	> 64 µg/mL	> 64 µg/mL	> 64 µg/mL
CN(C)c1ccc(/C=C/c2cc(N3CCCC3)c3ccccc3[n+]2C)cc1.[I-]	1 µg/mL	64 µg/mL	16 µg/mL	1 µg/mL	2 µg/mL	32 µg/mL	2 µg/mL	8 µg/mL	> 64 µg/mL	2 µg/mL	4 µg/mL	4 µg/mL	1 µg/mL	4 µg/mL	> 64 µg/mL	4 µg/mL	1 µg/mL
CCCCCNc1cc(/C=C/c2ccc(N(C)C)cc2)c2ccccc2[n+]1C.[I-]	8 µg/mL	> 64 µg/mL	> 64 µg/mL	8 µg/mL	8 µg/mL	> 64 µg/mL	8 µg/mL	8 µg/mL	> 64 µg/mL	16 µg/mL	> 64 µg/mL	8 µg/mL	8 µg/mL	8 µg/mL	> 64 µg/mL	8 µg/mL	8 µg/mL
CN[C@H](CC(C)C)C(=O)N[C@H]1C(=O)N[C@@H](CC(N)=O)C(=O)N[C@H]2C(=O)N[C@H]3C(=O)N[C@H](C(=O)N[C@H](C(=O)O)c4cc(O)cc(O)c4-c4cc3ccc4O)[C@H](O)c3ccc(c(Cl)c3)Oc3cc2cc(c3O[C@@H]2O[C@H](CO)[C@@H](O)[C@H](O)[C@H]2O[C@H]2C[C@](C)(N)[C@H](O)[C@H](C)O2)Oc2ccc(cc2Cl)[C@H]1O [VANCOMYCIN]	32 µg/mL (≈ 22.1 µM)	> 64 µg/mL	> 64 µg/mL	> 64 µg/mL	–	> 64 µg/mL	1020 µg/mL (≈ 707 µM)	–	> 64 µg/mL	2 µg/mL (≈ 1.38 µM)	> 64 µg/mL	0.25 µg/mL (≈ 0.173 µM)	–	–	> 64 µg/mL	> 64 µg/mL	–
CCCCNc1cc(/C=C/c2ccc(N(C)C)cc2)c2ccccc2[n+]1C.[I-]	16 µg/mL	> 64 µg/mL	> 64 µg/mL	16 µg/mL	16 µg/mL	> 64 µg/mL	8 µg/mL	16 µg/mL	> 64 µg/mL	32 µg/mL	> 64 µg/mL	8 µg/mL	32 µg/mL	16 µg/mL	> 64 µg/mL	8 µg/mL	32 µg/mL
